# Experimental data published in patent US11840570B2, “Pharmaceutical combination and method for regulation of tumor microenvironment and immunotherapy” (Great Novel Therapeutics Biotech & Medicals Corporation, priority 2018, dated 2023).
# Tested on: CT26 colon tumor
# Test: Anti-cancer activity in CT26 tumor-bearing BALB/c mice
# Assay type: in vivo, mouse
# Conditions: anti-PD-1 10 mg/kg, chidamide 50 mg/kg, metformin 100 mg/kg
# Protocol: Animal research was approved and overseen by The Taipei Medical University Institutional Animal Care and Use Committee (TMU IACUC). Six- to eight-wk-old male BALB/C mice (BioLASCO Taiwan) were used for all animal experiments. JC (1×10^7), or CT26 (5×10^6˜1×10^7) cancer cells were inoculated by s.c. into the right flank of each mouse. Tumors were allowed to grow for 11 d (tumor size about 200-300 mm^3) before randomization and treatment. CT26-bearing and JC-bearing mice were given 10 or 2.5 mg/kg of anti-IgG, anti-PD-1 and/or anti-PD-L1 and anti-CTLA-4 (2.5 mg/kg) antibodies i.p. on days 11, 14, 17, 20, 23, and 26 post-tumor implantation, and all antibodies were diluted to appropriate concentrations in 100 μL of sterile PBS (pH 7.4) (Invitrogen Life Technologies). Celecoxib, chidamide, metformin, mocetinostat, entinostat, aspirin, and ibuprofen treatments were administrated orally on day 11 post-tumor implantation. Daily treatment with celecoxib (12.5, 25.0, and 50 mg/kg) or metformin (100 or 200 mg/kg) was performed from days 11 to 26. Chidamide was administered to treat tumor bearing mice at doses of 6.25, 12.5, 25, and 50 mg/kg or as a single dose. Chidamide was orally administered daily from days 11 to 26. Entinostat was orally administered at a dose of 20 mg/kg every two days from days 11 to 25. Mocetinostat was orally administered at a dose of 30 mg/kg daily treatment from days 11 to 26. Aspirin and ibuprofen was orally administered at a dose of 50 mg/kg daily treatment from days 11 to 26. The anti-cancer activity was measured from the start of the treatment of tumor growth until the tumor volume reached 3,000 mm^3. Tumor volume was calculated as length×width^2×0.5.
# To understand the anti-cancer activity of anti-PD-1 antibody on the CT-26 colon cancer cell -bearing BALB/c mice, the anti-PD-1 antibody was administered into CT26-bearing mice at 10 mg/kg of anti-PD-1 and/or anti-IgG antibodies i.p. on days 11, 14, 17, 20, 23, and 26 of post tumor implantation. […] The response rate was evaluated by several assays.
smiles,measurement,setting,value
CN(C)C(=N)N=C(N)N [metformin],tumor growth inhibition / anti-cancer activity,FIG. 2A/2B,markedly inhibited
same,mice with PD,"FIG. 2B, entinostat 20 mg/kg",five
same,mice with SD,"FIG. 2B, entinostat 20 mg/kg",one
